Assay results from the METLIN SMRT retention time set (Domingo-Almenara et al. 2019).

Test: gradient 5% acetonitrile 3 min, to 50% in 2 min, to 85% in 15 min, held 3 min, 100 µL/min
Settings: column: Zorbax Extend-C18 2.1 x 50 mm; eluents: water / acetonitrile, 0.1% formic acid
Method in brief: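 Data were gathered over 3 months by HPLC coupled to a quadrupole time-of-flight mass spectrometer, operated in positive and negative ionization mode. Mixtures of ~100 pure standards ran on a Zorbax Extend-C18 column (2.1 × 50 mm, 1.8 μm) at 100 μL/min, with water and acetonitrile each containing 0.1% formic acid and dead and dwell volumes of 40 μL and 900 μL. Retention time was read from adduct peaks picked by computer and checked manually.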

Row | SMILES | RP-LC retention time [s]
1 | CCN(CC)CCCNC(=O)c1cccn1-c1nnc(N2CCCC2)s1 | 562
2 | Cc1cnc(C2CN(C(=O)c3cccn3C)C2)n1CC1CC1 | 608
3 | Cc1cccc(NC(=O)N(C)CCc2noc(COc3cccc(C)c3)n2)c1 | 970
4 | COc1ccc(S(=O)(=O)N2CCc3nc(-c4ccc(Cl)cc4)ncc3C2)cc1 | 1100
5 | O=S(=O)(c1ccc2c(c1)CCC2)N1CCCC1c1nc(-c2cccc(Cl)c2)no1 (stereo not given) | 1310
6 | COc1ccc(OC)c(CNC(=O)C2CCCN2S(=O)(=O)c2cc3c(cc2C)NC(=O)CO3)c1 (stereo not given) | 730
7 | CCOc1ccc(NC(=O)CN2CCN(Cc3ccc(C)cc3)C(=O)C2=O)cc1 | 799
8 | COc1ccc(C(=O)NCCc2sc(-c3cccnc3)nc2C)cc1 | 619
9 | CC(C)CCNC(=O)c1ccc2ccnc(N3CCN(c4ccc(Cl)cc4)CC3)c2c1 | 992
10 | Clc1ccc(-c2csc(N3CCC(c4ccccc4)C3)n2)cc1 (stereo not given) | 814
11 | CC(Oc1ccc(=O)n(-c2ccc(F)cc2)n1)C(=O)Nc1ccc(Cl)cc1 (stereo not given) | 845
12 | O=C(CCCc1nc(-c2ccc(Cl)cc2)no1)Nc1nc(-c2ccccc2)cs1 | 1170
13 | COc1cccc(CNC2=NCCNC23CCN(S(=O)(=O)c2ccc(C)cc2)CC3)c1 | 717
14 | CC(C)CCNC(=O)CCC(=O)N1CC2CCCN2c2ccccc21 (stereo not given) | 902
15 | CCOC(=O)c1[nH]c(C)c(CCC(=O)N2CCC(C(=O)NC3CCCCCC3)CC2)c1C | 823
16 | CCOC(=O)c1cc(S(=O)(=O)N2CCCC2C(=O)Nc2cccc(F)c2)cn1C (stereo not given) | 938
17 | CC1CCN(c2ccc(-c3noc(CN(C)C4CCCCC4)n3)cn2)CC1 | 720
18 | Cc1nnsc1C(=O)N1CCC(CNC(=O)c2cc(-c3ccccc3)on2)CC1 | 761
19 | O=C(Cc1cccs1)Nc1ccc2c(c1)CCC(=O)N2 | 620
20 | COc1cc(NC(=O)N2CCCN(c3ccc(=O)n(-c4ccc(F)cc4)n3)CC2)cc(OC)c1OC | 702
21 | O=C(NCC(c1ccco1)N1CCN(c2ccc(F)cc2)CC1)c1cnccn1 (stereo not given) | 585
22 | COc1ccc(OC)c(NC(=O)c2cc(C(C)(C)C)n3nccc3n2)c1 | 768

Row | SMILES | RP-LC retention time [s]
23 | O=C(Cn1c(=O)c2cccn2c2ccc(F)cc21)NCc1cccs1 | 785
24 | O=C(CN1CCC(c2nc(-c3cccc(F)c3)no2)CC1)NC1CCCCC1 | 705
25 | CCSc1nnc(-c2nn(C)c3c2CN(S(=O)(=O)c2ccc4c(c2)OCCO4)CC3)n1CC | 895
26 | COc1cc(NC(=O)N2CCc3cn(C)c4cccc(c34)C2)cc(OC)c1 | 713
27 | COc1ccc(CC(=O)N2C[C@@H]3C[C@H]2C[C@@H]3NC(=O)c2cccs2)cc1Cl | 764
28 | O=C(c1ccc(Cn2cncn2)cc1)N1CCc2ccccc2C1 | 687
29 | CCc1nc2c(c(=O)n1CC(=O)NCc1ccc(F)cc1)CN(Cc1ccccc1)CC2 | 649
30 | Cc1cc(Cl)ccc1S(=O)(=O)N1CCCC1c1nncn1-c1ccccc1 (stereo not given) | 845
31 | Cc1ccc(-c2nc(N3CC(C)OC(C)C3)c3ccccc3n2)cc1 (stereo not given) | 763
32 | CCN(CC)S(=O)(=O)c1ccc(NC(=O)c2oc3c(c2C)C(=O)CC(C)(C)C3)cc1 | 982
33 | COc1ccc(CNC(=O)c2nnc(-c3ccc(S(=O)(=O)N4CCOCC4)cc3)o2)cc1 | 829
34 | Cc1ncsc1CN1CC(Oc2ccc(-c3noc(C4CC4)n3)cc2)C1 | 652
35 | CCc1nc(-c2csc(S(=O)(=O)N3CCC(C(=O)N4CCc5ccccc5C4)CC3)c2)no1 | 1020
36 | Cc1ccc(-n2c(=O)n(CC(=O)NCCN3CCN(C)CC3)c3cccnc32)cc1 | 589
37 | CCN1CCCn2cc(S(=O)(=O)Nc3cc(F)cc(F)c3)cc2C1=O | 768
38 | Cc1ccc(CNC(=O)C2(C)CN(S(C)(=O)=O)CC(=O)N2c2cc(C)cc(C)c2)cc1 (stereo not given) | 860
39 | O=C(O)C1CCN(c2nc3ccc(-c4ccccc4F)nc3s2)CC1 | 869
40 | CCN(CC)S(=O)(=O)c1cc(-c2nc(C(C)C)cs2)sc1C | 1270
41 | Cc1nn(-c2ccccc2)c2nc(N3CCCC(C(=O)NCCN4CCOCC4)C3)sc12 (stereo not given) | 670
42 | O=C(CN1C(=O)COc2ccc(C(=O)N3CCCCC3)cc21)NC1CCCCCC1 | 782
43 | CCc1c(C2CCN(C(=O)c3cc4ccccc4[nH]3)CC2)noc1N | 774
44 | O=S(=O)(c1cc(-c2noc(C3CC3)n2)cs1)N1CCN(c2ccccn2)CC1 | 719

Continued, values first:

Row | RP-LC retention time [s] | SMILES
45 | 704 | Cc1ccn2cc(C(=O)NCc3ccc(Cl)cc3)nc2c1
46 | 636 | CCN1CCN(S(=O)(=O)c2cc(-c3nnc(-c4ccccc4)o3)ccc2OC)CC1
47 | 803 | O=C1COc2ccc(S(=O)(=O)N3CCC(C(=O)Nc4ccc(C(F)(F)F)cc4)CC3)cc2N1
48 | 801 | CCOc1ccc(-c2noc(CN3N=NC4C(=O)N(c5ccc(C)c(F)c5)C(=O)C43)n2)cc1OC (stereo not given)
49 | 969 | CC(C)NC(=O)C1CCCCN1S(=O)(=O)c1ccc(Br)cc1 (stereo not given)
50 | 947 | Cc1ccc(CNC(=O)c2nnc(-c3ccc(S(=O)(=O)N(C)C)cc3)o2)cc1C
51 | 638 | O=C(c1ccc(CN2C(=O)CCn3nc(-c4ccccc4)cc32)cc1)N1CCN(c2ccccn2)CC1
52 | 610 | O=C(NC1CCN(Cc2ccccc2)CC1)c1cn2cc(Cl)ccc2n1
53 | 666 | Cc1ccc2c(c1)C(O)(CC(=O)c1ccccc1)C(=O)N2 (stereo not given)
54 | 921 | O=S(=O)(c1ccc2nc(N3CCN(c4ccccc4)CC3)ccc2c1)N1CCCC1
55 | 526 | Cc1cccc(CN2CC(c3noc(C4CCCN4CC4CC4)n3)C2)c1 (stereo not given)
56 | 580 | CNC(=O)CC1CCOC2(CCN(C(=O)C3CC3)CC2)C1 (stereo not given)
57 | 555 | O=C(c1cc[nH]c(=O)c1)N1C[C@@H](COCC2CC2)[C@H](c2ccncc2)C1
58 | 567 | CN(C)CCNC(=O)c1ccc2c(c1)nnn2Cc1ccccc1
59 | 1330 | Cc1ccc(-c2cc3c(=O)n(Cc4nc(-c5ccc(F)cc5)no4)ccn3n2)cc1
60 | 764 | CCCc1nnc(NC(=O)C2CC(=O)N(CCc3c[nH]c4ccc(Cl)cc34)C2)s1 (stereo not given)
61 | 656 | O=C(NCCCN1CCCC1=O)c1nc2ccccn2c1-c1ccc(F)cc1
62 | 871 | O=C(c1cccc(F)c1)N1CCN(c2ccc(=O)n(-c3ccc(Cl)cc3)n2)CC1
63 | 967 | CC1(C(=O)NCc2ccc(F)cc2)CCCN(C(=O)Nc2cccc(Cl)c2)C1 (stereo not given)
64 | 940 | Cc1ccc(NC(=O)Cn2nc(N3CCSCC3)c3ccccc3c2=O)c(C)c1
65 | 754 | Cc1cccc(C)c1-n1nnc(C(=O)NCC2CCCO2)c1C (stereo not given)
